Data taken from patent US20240018146A1, “COMPOSITIONS AND METHODS OF USING THE SAME FOR TREATMENT OF NEURODEGENERATIVE AND MITOCHONDRIAL DISEASE” (MITOKININ, INC., priority 2020, published 2024).
Read-outs that look alike come from different tables or passages of the source.

Assays:
Format in all cases: cell-based
[1] = Mitotoxicity / Mitotox safety margin (therapeutic window)
HeLa MKYP cells [2] = experiment: Human mitophagy assay (HeLa mKeima assay, FACS)
How it was run: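 Mitophagy, read by FACS as the share of cells showing the lysosomal mtKeima emission shift, followed 6 h of 1 uM FCCP/oligomycin stimulation. Before that, HeLa MKYP cells spent 16 h with compound over a concentration range.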

HeLa MKYP cells [3] = experiment: Cell death measured by DAPI staining, with 1 μM FCCP/oligomycin or no toxin (no FO)
How it was run: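 Cell death was read by DAPI staining after 6–6.5 h compound exposure in HeLa MKYP cells, either with 1 μM FCCP/oligomycin or without toxin. H2O2 served as the cell-death control.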

[4] = Homo sapiens, HeLa, read-out: Mitophagy induction EC50
[5] = read-out: Mitophagy induction EC50

| Compound | Mito-Safety Index (highest safe dose/EC50) [1] | Highest safe dose (μM) (mitotox or cytotox) [1] [µM] | EC50 (HeLa MKYP cells [2]; [4]) [nM] | Highest safe dose (cytotoxicity; no FO; safe means DAPI+ <20%) (HeLa MKYP cells [3]; no FO) [µM] | Max % death with 1 μM FO (HeLa MKYP cells [3]) [%] | mitotoxicity ([1]; FIG. 5-7) | Mitotox safety margin (Therapeutic window) [1] | EC50 (HeLa MKYP cells [2]; HeLa mKeima assay, read-out: Mitophagy EC50 (HeLa mKeima assay)) [nM] | EC50 (HeLa MKYP cells [2]; [5]) [nM] | Max cell death at 25 μM compound, 1 uM FO (%) (HeLa MKYP cells [3]; 25 μM compound, 1 uM FO) | Cell death at 25 μM (no FO) (%) (HeLa MKYP cells [3]; 25 μM compound, no FO) |
| --- | --- | --- | --- | --- | --- | --- | --- | --- | --- | --- | --- |
| FC(F)(F)c1cc2c(N[C@H]3c4ccccc4OC[C@H]3C3CCCOC3)ncnc2[nH]1 (mixture of isomers) [EP-0041004] | 25.46 | 25.0 | 980 | 25.0 | 71.7 |  |  |  |  |  |  |
| Oc1ccc2c(c1)CCC[C@H]2Nc1ncnc2[nH]c(C(F)(F)F)cc12 (single isomer, unassigned) [EP-0038508] |  |  |  |  |  | low mitotoxicity |  |  |  |  |  |
| Fc1ccc2c(c1)CC[C@H](N1CCOCC1)[C@H]2Nc1ncnc2[nH]c(C3CC3)cc12 (single isomer, unassigned) [EP-0039746] | 9.48 | 2.8 |  | 25.0 | 13.4 |  | +++ (+++ = 20 < x < 30) | 250 | 290 | 15.3 | 3.3 |
| c1ccc2c(c1)CC[C@H](N1CCOCC1)[C@H]2Nc1ncnc2[nH]c(C3CC3)cc12 (single isomer, unassigned) [EP-0040108] | 138.83 | 18.3 | 130 | 25.0 | 19.1 |  |  |  |  |  |  |
| c1ccc2c(c1)CC[C@@H](N1CCOCC1)[C@@H]2Nc1ncnc2[nH]c(C3CC3)cc12 (single isomer, unassigned) [EP-0040109] | 1.01 | 25.0 | 24800 | 25.0 | 7.9 |  |  |  |  |  |  |
| Fc1ccc2c(c1)OC[C@H](N1C[C@H]3COC[C@H]3C1)[C@H]2Nc1ncnc2[nH]c(C3CC3)cc12 (single isomer, unassigned) [EP-0040328] | 84.78 | 16.0 |  | 25.0 | 16.0 |  |  |  | 190 |  |  |
| c1ccc2c(c1)OC[C@@H](N1C[C@H]3COC[C@H]3C1)[C@@H]2Nc1ncnc2[nH]c(C3CC3)cc12 (single isomer, unassigned) [EP-0040392] | 153.83 | 16.6 | 110 | 25.0 | 11.8 |  |  |  |  |  |  |
| C[C@@H]1CN([C@H]2CCc3ccccc3[C@@H]2Nc2ncnc3[nH]c(C(F)(F)F)cc23)CCO1 (single isomer, unassigned) [EP-0040491] | 49.72 | 3.7 | 70 | 25.0 | 19.4 |  |  |  |  |  |  |
| C[C@@H]1CN([C@H]2CCc3ccccc3[C@@H]2Nc2ncnc3[nH]c(C(F)(F)F)cc23)C[C@H](C)O1 (single isomer, unassigned) [EP-0040493] | 103.09 | 1.7 | 20 | 25.0 | 14.8 |  |  |  |  |  |  |
| C[C@@H]1CN([C@H]2CCc3ccccc3[C@@H]2Nc2ncnc3[nH]c(C4CC4)cc23)CCO1 (single isomer, unassigned) [EP-0040496] | 82.87 | 1.3 | 20 | 25.0 | 15.6 |  |  |  |  |  |  |
| C[C@@H]1CN([C@H]2CCc3ccccc3[C@@H]2Nc2ncnc3[nH]c(C4CC4)cc23)C[C@H](C)O1 (single isomer, unassigned) [EP-0040498] | 30.45 | 0.7 | 20 | 25.0 | 16.5 |  |  |  |  |  |  |
| Fc1cccc2c1CC[C@@H](N1C[C@H]3COC[C@H]3C1)[C@@H]2Nc1ncnc2[nH]c(C(F)(F)F)cc12 (single isomer, unassigned) [EP-0040506] | 44.10 | 2.2 | 50 | 25.0 | 41.0 |  |  |  |  |  |  |
| C[C@H]1CN([C@H]2CCc3ccccc3[C@@H]2Nc2ncnc3[nH]c(C4CC4)cc23)CCO1 (single isomer, unassigned) [EP-0040511] | 53.66 | 3.5 | 70 | 25.0 | 13.1 |  |  |  |  |  |  |
| Fc1cccc2c1CC[C@@H](N1C[C@H]3COC[C@H]3C1)[C@@H]2Nc1ncnc2[nH]c(C3CC3)cc12 (single isomer, unassigned) [EP-0040577] | 86.01 | 1.3 | 20 | 25.0 | 28.6 |  |  |  |  |  |  |
| FC(F)(F)c1cc2c(N[C@H]3c4ccccc4CC[C@@H]3C3CCOCC3)ncnc2[nH]1 (single isomer, unassigned) [EP-0040580] | 68.72 | 5.5 | 80 | 25.0 | 17.1 |  |  |  |  |  |  |
| c1ccc2c(c1)CC[C@H](C1CCOCC1)[C@H]2Nc1ncnc2[nH]c(C3CC3)cc12 (single isomer, unassigned) [EP-0040582] | 68.01 | 5.1 | 80 | 25.0 | 17.7 |  |  |  |  |  |  |
| Fc1ccc2c(c1)OC[C@H](N1C[C@@H]3COC[C@H]3C1)[C@H]2Nc1ncnc2[nH]c(C3CC3)cc12 (single isomer, unassigned) [EP-0040644] | 72.77 | 25.0 |  | 25.0 | 8.1 |  |  |  | 340 |  |  |
| FC(F)(F)c1cc2c(N[C@@H]3c4ccccc4OC[C@H]3C3CCOCC3)ncnc2[nH]1 (single isomer, unassigned) [EP-0040700] | 41.37 | 4.7 | 110 | 25.0 | 14.1 |  |  |  |  |  |  |
| Fc1ccc2c(c1)CC[C@@H](N1C[C@H]3COC[C@H]3C1)[C@@H]2Nc1ncnc2[nH]c(C(F)(F)F)cc12 (single isomer, unassigned) [EP-0040721] | 46.94 | 8.3 | 180 | 8.3 | 36.3 |  |  |  |  |  |  |
| Fc1ccc2c(c1)OC[C@H](N1C[C@H]3COC[C@@H]3C1)[C@H]2Nc1ncnc2[nH]c(C(F)(F)F)cc12 (single isomer, unassigned) [EP-0040748] | 46.81 | 9.9 |  | 25.0 | 25.3 |  |  |  | 210 |  |  |
| C[C@@H]1CN([C@H]2COc3ccccc3[C@@H]2Nc2ncnc3[nH]c(C(F)(F)F)cc23)C[C@H](C)O1 (single isomer, unassigned) [EP-0040749] | 48.24 | 7.1 | 150 | 25.0 | 34.3 |  |  |  |  |  |  |
| C[C@@H]1CN([C@H]2COc3ccccc3[C@@H]2Nc2ncnc3[nH]c(C4CC4)cc23)C[C@H](C)O1 (single isomer, unassigned) [EP-0040750] | 43.07 | 2.3 | 50 | 25.0 | 27.7 |  |  |  |  |  |  |
| C[C@@H]1CN([C@H]2COc3cc(F)ccc3[C@@H]2Nc2ncnc3[nH]c(C(F)(F)F)cc23)C[C@H](C)O1 (single isomer, unassigned) [EP-0040773] | 77.04 | 9.9 | 130 | 25.0 | 27.3 |  |  |  |  |  |  |
| C[C@@H]1CN([C@H]2COc3cc(F)ccc3[C@@H]2Nc2ncnc3[nH]c(C4CC4)cc23)C[C@H](C)O1 (single isomer, unassigned) [EP-0040842] | 82.00 | 2.0 | 20 | 25.0 | 22.5 |  |  |  |  |  |  |
| FC(F)(F)c1cc2c(N[C@@H]3c4ccccc4OC[C@@H]3C3CCCOC3)ncnc2[nH]1 (single isomer, unassigned) [EP-0041005] | 17.30 | 25.0 | 1450 | 25.0 | 24.8 |  |  |  |  |  |  |
| COC[C@H]1CCCN1[C@H]1COc2ccccc2[C@@H]1Nc1ncnc2[nH]c(C(F)(F)F)cc12 [EP-0041553] |  |  | 15200 | 25.0 | 5.7 |  |  |  |  |  |  |
